According to paper PMC11823609, “Advancements in the fight against globally distributed OXA-48 carbapenemase: evaluating the new generation of carbapenemase inhibitors” (Antimicrobial Agents and Chemotherapy, 2025):
In brackets after ≈: the same amount, converted by molar mass.

How the values were obtained:
[1] = tested on: E. coli TG1 and HB4 transformants; assay: MIC summary over E. coli transformants; format: cell-based, Escherichia coli
Description: (§1) The E. coli HB4 strain was used to gain a more complete perspective, by evaluating the involvement in resistance of a low permeability background with the carbapenemase OXA-48, as well as coproduction of an ESBL and the carbapenemase; thus, the ESBL CTX-M-14 and OXA-48 were cloned together and separately into E. coli HB4. The characteristics of these strains and transformants are summarized in Table S1, and the cloning procedures are outlined in the supplemental methods.
(§2) The MICs of each of the individual compounds (antibiotics or inhibitors) were also determined. The MICs were determined for the E. coli isogenic expressing OXA-48 (and both OXA-48 and CTX-M-14) to assess their activity against the carbapenemase; MICs were also determined for the 18 Enterobacterales clinical isolates in order to evaluate the new inhibitors against also their resistance concomitant mechanisms. The MICs were determined in triplicate experiments, and the EUCAST 13.0 clinical breakpoints were followed (http://www.eucast.org/clinical_breakpoints).
(§3) For comparative evaluation of the activity of each inhibitor alone against the carbapenemase OXA-48, all inhibitors (at 4 mg/L) were tested in the presence of a carbapenem (ertapenem, adequate substrate) and a cephalosporin (ceftazidime, poor substrate) as reporter substrates. This prevented any possible masking effect produced by the different partner antibiotics. These assays were also performed with isogenic transformants and clinical isolates.

[2] = tested on: OXA-48-producing Enterobacterales clinical isolates; assay: MIC summary over clinical isolates; format: cell-based; conditions: clinical isolates
Description: (§4) The efficacy of these new BLIs was also evaluated against 18 genetically diverse WGS-characterized collection of OXA-48-positive Enterobacterales recovered as part of the Carbapenem-resistant Enterobacterales Genome Database Project (https://genomes.cnag.cat/incredble) listed in Table S2 ([13]). Combinations of clinical isolates (five pairs of Klebsiella pneumoniae, two pairs of Enterobacter cloacae, and two pairs of E. coli) were chosen for analysis: (i) nine strains carrying ESBLs; and (ii) nine strains (genetically closer available strains) without ESBLs.
as §2, §3

E. coli TG1 (OXA-48) = assay: microbe, parasite or virus in culture; format: cell-based, Escherichia coli; conditions: Escherichia coli
Description: as §2, §3

[3] = tested on: E. coli HB4 ΔompC/F (CTX-M-14); assay: microbe, parasite or virus in culture; format: cell-based, Escherichia coli; conditions: Escherichia coli
Description: as §1, §2, §3

[4] = tested on: E. coli HB4 ΔompC/F (OXA-48); assay: microbe, parasite or virus in culture; format: cell-based, Escherichia coli; conditions: Escherichia coli
Description: as §1, §2, §3

[5] = tested on: E. coli HB4 ΔompC/F (CTX-M-14 + OXA-48); assay: microbe, parasite or virus in culture; format: cell-based, Escherichia coli; conditions: for MIC: Escherichia coli
Description: as §1, §2, §3

E. coli HB4 ΔompC/F = assay: microbe, parasite or virus in culture; format: cell-based, Escherichia coli; conditions: Escherichia coli
Description: as §1, §2, §3

[6] = tested on: K. pneumoniae strain 413 (MLST 147, ESBL); assay: microbe, parasite or virus in culture; format: cell-based; conditions: Klebsiella pneumoniae
Description: as §4, §2, §3

[7] = tested on: E. cloacae strain 272 (MLST 78, ESBL); assay: microbe, parasite or virus in culture; format: cell-based; conditions: Enterobacter cloacae
Description: as §4, §2, §3

[8] = tested on: K. pneumoniae strain 238 (MLST 15, ESBL); assay: microbe, parasite or virus in culture; format: cell-based; conditions: Klebsiella pneumoniae
Description: as §4, §2, §3

[9] = tested on: K. pneumoniae strain 194 (MLST 392, No ESBL); assay: microbe, parasite or virus in culture; format: cell-based; conditions: Klebsiella pneumoniae; K. pneumoniae 194; β-lactamase inhibitor alone; read-out: MIC
Description: as §4, §2, §3

[10] = tested on: E. coli strain 103 (MLST 10, ESBL); assay: microbe, parasite or virus in culture; format: cell-based; conditions: Escherichia coli
Description: as §4, §2, §3

[11] = tested on: K. pneumoniae strain 170 (MLST 307, No ESBL); assay: microbe, parasite or virus in culture; format: cell-based; conditions: Klebsiella pneumoniae; K. pneumoniae 170; β-lactamase inhibitor alone; read-out: MIC
Description: as §4, §2, §3

[12] = tested on: K. pneumoniae strain 71 (MLST 15, No ESBL); assay: microbe, parasite or virus in culture; format: cell-based; conditions: Klebsiella pneumoniae; K. pneumoniae 71; β-lactamase inhibitor alone; read-out: MIC
Description: as §4, §2, §3

[13] = tested on: K. pneumoniae strain 23 (MLST 392, ESBL); assay: microbe, parasite or virus in culture; format: cell-based; conditions: Klebsiella pneumoniae
Description: as §4, §2, §3

[14] = tested on: K. pneumoniae strain 497 (MLST 11, No ESBL); assay: microbe, parasite or virus in culture; format: cell-based; conditions: Klebsiella pneumoniae; K. pneumoniae 497; β-lactamase inhibitor alone; read-out: MIC
Description: as §4, §2, §3

[15] = tested on: E. cloacae strain 231 (MLST 171, No ESBL); assay: microbe, parasite or virus in culture; format: cell-based; conditions: Enterobacter cloacae; E. cloacae 231; β-lactamase inhibitor alone; read-out: MIC
Description: as §4, §2, §3

[16] = tested on: K. pneumoniae strain 125 (MLST 307, ESBL); assay: microbe, parasite or virus in culture; format: cell-based; conditions: Klebsiella pneumoniae
Description: as §4, §2, §3

[17] = tested on: E. coli strain 264 (MLST 131, No ESBL); assay: microbe, parasite or virus in culture; format: cell-based; conditions: Escherichia coli; E. coli 264; β-lactamase inhibitor alone; read-out: MIC
Description: as §4, §2, §3

[18] = tested on: E. coli strain 177 (MLST 131, ESBL); assay: microbe, parasite or virus in culture; format: cell-based; conditions: Escherichia coli
Description: as §4, §2, §3

[19] = tested on: E. cloacae strain 235 (MLST 171, ESBL); assay: microbe, parasite or virus in culture; format: cell-based; conditions: Enterobacter cloacae
Description: as §4, §2, §3

[20] = tested on: E. cloacae strain 281 (MLST 78, No ESBL); assay: microbe, parasite or virus in culture; format: cell-based; conditions: Enterobacter cloacae; E. cloacae 281; β-lactamase inhibitor alone; read-out: MIC
Description: as §4, §2, §3

[21] = tested on: K. pneumoniae strain 237 (MLST 147, No ESBL); assay: microbe, parasite or virus in culture; format: cell-based; conditions: Klebsiella pneumoniae; K. pneumoniae 237; β-lactamase inhibitor alone; read-out: MIC
Description: as §4, §2, §3

[22] = tested on: K. pneumoniae strain 19 (MLST 11, ESBL); assay: microbe, parasite or virus in culture; format: cell-based; conditions: Klebsiella pneumoniae
Description: as §4, §2, §3

[23] = tested on: E. coli strain 224 (MLST 127, No ESBL); assay: microbe, parasite or virus in culture; format: cell-based; conditions: Escherichia coli; E. coli 224; β-lactamase inhibitor alone; read-out: MIC
Description: as §4, §2, §3

E. coli TG1 = assay: microbe, parasite or virus in culture; format: cell-based; conditions: Escherichia coli, β-lactamase inhibitor alone
Description: as §2, §3

OXA-48 = OXA-48 (Klebsiella pneumoniae, UniProt Q6XEC0); conditions: ref 26 Lahiri et al.; cited from earlier work
Chain of OXA-48 (Q6XEC0 23-265 limits assumed): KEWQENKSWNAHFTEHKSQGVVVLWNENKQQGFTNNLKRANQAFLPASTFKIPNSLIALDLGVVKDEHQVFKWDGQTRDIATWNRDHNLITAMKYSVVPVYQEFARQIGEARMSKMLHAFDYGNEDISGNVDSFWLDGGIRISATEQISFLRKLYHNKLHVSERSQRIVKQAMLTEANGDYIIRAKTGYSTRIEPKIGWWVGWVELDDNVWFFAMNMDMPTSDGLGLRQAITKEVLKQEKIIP

[24] = tested on: O=C(Cc1cccs1)N[C@@H]1C(=O)N2C(C(=O)O)=C(/C=C/c3ccc([N+](=O)[O-])cc3[N+](=O)[O-])CS[C@H]12; assay: purified protein, by the assay type; conditions: other: substrate hydrolysis by OXA-48; pH 7.4; 25.0 °C
[25] = OXA-48-producing E. coli hosts, BLI 4 mg/L

| Compound | MIC (E. coli TG1 (OXA-48)) | MIC [3] | MIC [4] | MIC [5] | MIC (E. coli HB4 ΔompC/F) | MIC [6] | MIC [7] | MIC [8] | MIC [9] | MIC [10] | MIC [11] | MIC [12] | MIC [13] | MIC [14] | MIC [15] | MIC [16] | MIC [17] | MIC [18] | MIC [19] | MIC [20] | further results |
| --- | --- | --- | --- | --- | --- | --- | --- | --- | --- | --- | --- | --- | --- | --- | --- | --- | --- | --- | --- | --- | --- |
| O=C(NNC(=O)[C@@H]1CC[C@@H]2CN1C(=O)N2OS(=O)(=O)O)[C@@H]1CCCNC1 [Zidebactam, zidebactam] | 0.12 µg/mL (≈ 0.307 µM) | 0.5 µg/mL (≈ 1.28 µM) | 0.5 µg/mL (≈ 1.28 µM) | 0.5 µg/mL (≈ 1.28 µM) | 0.5 µg/mL (≈ 1.28 µM) | ≥ 128 µg/mL | 0.5 µg/mL | 0.25 µg/mL | 0.5 µg/mL | 8 µg/mL | 0.5 µg/mL | 0.5 µg/mL | 0.5 µg/mL | 32 µg/mL | 0.25 µg/mL | ≥ 128 µg/mL | 0.12 µg/mL | 0.5 µg/mL | 2 µg/mL | 0.25 µg/mL | effect of ertapenem/BLI on bacterial growth [1, 25]: totally inhibited bacterial growth; MICs of inhibitor alone (range over strains) ([1]; TG1 and HB4 E. coli): 0.12 to 2 mg/L; reduction of cefepime MICs by BLI [2]: 2–512 fold; MIC [21]: 0.5 µg/mL; MIC [22]: ≥ 128 µg/mL; MIC [23]: 0.25 µg/mL; MIC (E. coli TG1): 0.12 µg/mL (≈ 0.307 µM) |
| NC(=O)[C@@H]1CC[C@@H]2CN1C(=O)N2OS(=O)(=O)O [Avibactam, avibactam] | 4 µg/mL (≈ 15.1 µM) | 16 µg/mL (≈ 60.3 µM) | 8 µg/mL (≈ 30.2 µM) | 16 µg/mL (≈ 60.3 µM) | 8 µg/mL (≈ 30.2 µM) | 64 µg/mL | 32 µg/mL | 32 µg/mL | 16 µg/mL | 32 µg/mL | 16 µg/mL | 32 µg/mL | 16 µg/mL | ≥ 128 µg/mL | 8 µg/mL | 32 µg/mL | 16 µg/mL | 32 µg/mL | 32 µg/mL | 16 µg/mL | decrease of ertapenem MIC with BLI [1, 25]: 8–256 fold; t1/2 (OXA-48): 1,000 min; decrease of ertapenem MIC with BLI ([5]; E. coli HB4 coproducing CTX-M-14 and OXA-48, BLI 4 mg/L): 256 fold; MIC [21]: 64 µg/mL; MIC [22]: ≥ 128 µg/mL; MIC [23]: 16 µg/mL; MIC (E. coli TG1): 4 µg/mL (≈ 15.1 µM) |
| OXA-48 (Klebsiella pneumoniae) |  |  |  |  |  |  |  |  |  |  |  |  |  |  |  |  |  |  |  |  | Km [24]: 56.5 µM; kcat [24]: 171.4 s⁻¹; kcat/Km [24]: 3.05e+06 M⁻¹ s⁻¹ |
